{"source": "patent US12351574B2", "about": "“Selective ligands for modulation of GIRK channels” (Northeastern University, priority 2018, dated 2025)", "biological_target": "T1, GIRK1/2 (UniProt P48542+P48549)", "T1 sequence (P48549 1-501)": "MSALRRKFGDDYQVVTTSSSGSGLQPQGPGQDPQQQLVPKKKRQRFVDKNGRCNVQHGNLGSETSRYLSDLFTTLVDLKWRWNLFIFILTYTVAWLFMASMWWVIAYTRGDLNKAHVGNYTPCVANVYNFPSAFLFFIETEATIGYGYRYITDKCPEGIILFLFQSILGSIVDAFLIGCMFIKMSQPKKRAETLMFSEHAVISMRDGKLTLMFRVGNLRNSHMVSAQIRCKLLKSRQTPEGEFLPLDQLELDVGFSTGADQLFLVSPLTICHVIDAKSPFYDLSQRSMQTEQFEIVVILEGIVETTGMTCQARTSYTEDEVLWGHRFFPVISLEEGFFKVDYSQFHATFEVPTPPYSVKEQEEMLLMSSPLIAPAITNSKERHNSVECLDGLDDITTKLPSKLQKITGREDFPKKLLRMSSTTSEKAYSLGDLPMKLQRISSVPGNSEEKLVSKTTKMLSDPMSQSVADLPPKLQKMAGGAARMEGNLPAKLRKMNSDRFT", "T1 sequence (P48542 1-425)": "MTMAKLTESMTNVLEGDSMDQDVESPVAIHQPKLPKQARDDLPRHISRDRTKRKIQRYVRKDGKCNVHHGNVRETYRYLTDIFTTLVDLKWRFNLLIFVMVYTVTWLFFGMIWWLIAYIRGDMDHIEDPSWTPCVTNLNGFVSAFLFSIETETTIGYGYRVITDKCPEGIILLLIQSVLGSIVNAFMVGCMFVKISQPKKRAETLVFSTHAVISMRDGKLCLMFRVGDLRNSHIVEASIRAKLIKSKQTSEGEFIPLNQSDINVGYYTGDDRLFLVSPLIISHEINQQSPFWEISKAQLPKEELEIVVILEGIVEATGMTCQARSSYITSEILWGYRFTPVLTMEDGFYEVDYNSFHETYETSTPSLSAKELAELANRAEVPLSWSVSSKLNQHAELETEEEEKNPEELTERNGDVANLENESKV", "experiment": "current inhibition by light-activated phosphatase 5-ptaseOCRL, HEK293 whole-cell patch-clamp, GIRK1/2", "assay_type": "cell-based, human GIRK1, mouse GIRK2", "parameters": "expressed in transfected cells", "details": "for percentage of GIRK1/2 channel current remaining following activation of 5-ptaseOCRL (in words) / τ of current-inhibition, GIRK1/2 (in words): 10 μM compound versus control; for protection from current inhibition, rank order, GIRK1/2: current levels and kinetics of inhibition", "from_the_text": "The inventors next pursued whole-cell patch-clamp experiments to further validate the model predictions and excised-patch results. Expression of a light-activated phosphatase that upon exposure to blue light dephosphorylates PI(4,5)P2 to PI(4)P and inhibits GIRK currents allowed recording of macroscopic currents in the absence and presence of ML297 and the two brain-specific GAT compounds. […] Since GAT1508 and ML297 only bind GIRK1 or GIRK1-like (i.e. “FD-containing”, “FD”=mimics the contribution of GIRK1 residues F137 and D173, see Example 2) subunits resulting in corresponding changes in channel-PIP2 interactions and channel activity, the inventors next sought to compare channel subunit specific interactions with PIP2 for subunits bound to the ligand (P-FD) versus those not bound to the ligand (P-WT) (FIGS. 19, 38A).\nCulture of HEK293 cells: HEK293-T cells were obtained from ATCC and maintained in DMEM medium supplemented with 10% FBS and 1% penicillin and streptomycin (Hyclone). For patch-clamp studies, cells were seeded on glass coverslips and transfected 24-hours later using a polyethylenimine solution (1 mg/ml) at a ratio of 8 μl per μg of DNA. To study GIRK-currents, cells were transfected with 0.75 μg each of plasmids encoding GIRK1, GIRK2 or GIRK4 as indicated. In the optogenetic experiments, cells were co-transfected with plasmids encoding 5-ptaseOCRL and CIBN-CAAX, as previously described. 5-ptaseOCRL and CIBN-CAAX were a kind gift from the DeCamilli lab, Yale CT. All experiments were performed at room temperature 24-36 hours post transfection.\nLight-activated phosphatase system: The inventors used a light-activated phosphatase system to dephosphorylate PIP2 that is comprised of two fusion proteins: CRY2-5-ptaseOCRL contains the photolyase domain of cryptochrome 2 (CRY2) and the inositol 5-phosphatase domain of the […] oculocerebrorenal syndrome protein (OCRL), while CIBN-CAAX contains the CRY2 binding domain (CIBN) and a C-terminal CAAX box for plasma membrane targeting. When CRY2-5-ptaseOCRL and CIBN-CAAX fusion proteins are co-expressed and exposed to blue light between 458-488 nm, the 5-ptase is localized to the plasma membrane, where it dephosphorylates PIP2. […] The 5-ptaseOCRL system was activated using a 460 nm LED (Luminus) that was focused on the cells through the objective lens of an inverted microscope (Nikon).\nPatch-clamp recording: Whole-cell currents were recorded with an Axopatch 200B amplifier (Molecular Devices) controlled via a USB-interface (National Instruments) using WinWCP software (University of Strathclyde). Currents were acquired through a lowpass Bessel filter at 2 kHz and were digitized at 10 kHz. […] Cells for study were selected based on GFP expression using an epifluorescence microscope (Nikon). […] Cells were perfused via a multi-channel gravity-driven perfusion manifold with a physiological buffer comprising: 135 mM NaCl, 5 mM KCl, 1.2 mM MgCl2, 1.5 mM CaCl2, 8 mM Glucose, and 10 mM HEPES; pH 7.4, then quickly transitioning to a high-K^+ buffer comprising 5 mM NaCl, 135 mM KCl, 1.2 mM MgCl2, 1.5 mM CaCl2, 8 mM Glucose, and 10 mM HEPES; pH 7.4. The barium-sensitive component of the current, observed when cells were perfused with the high-K^+ buffer, was analyzed and was determined by perfusing 5 mM BaCl2 in the high-K^+ buffer at the end of each experiment. The 5-ptaseOCRL system was activated using a 460 nm LED (Luminus) that was focused on the cells through the objective lens of an inverted microscope (Nikon). […] ML297, GAT1508 or GAT1521 were maintained as 10 mM stock solutions in DMSO and were diluted to concentrations between 10 μM and 1 nM using the high K^+ buffer for patch-clamp experiments."}
{"smiles": "Cc1cc(NC(=O)Nc2ccc(Br)s2)n(-c2ccccc2)n1", "note": "[GAT1508, 1-(5-bromothiophen-2-yl)-3-(3-methyl-1-phenyl-1H-pyrazol-5-yl)urea]", "values": [{"measurement": "percentage of GIRK1/2 channel current remaining following activation of 5-ptaseOCRL (in words)", "value": "increase"}, {"measurement": "τ of current-inhibition, GIRK1/2 (in words)", "value": "increase"}, {"measurement": "protection from current inhibition, rank order, GIRK1/2", "value": "GAT1508>GAT1521>ML297>Control"}]}
{"smiles": "Cc1cc(NC(=O)Nc2ccc(C)s2)n(-c2ccccc2)n1", "note": "[GAT1521, 1-(3-methyl-1-phenyl-1H-pyrazol-5-yl)-3-(5-methylthiophen-2-yl)urea]", "values": [{"measurement": "percentage of GIRK1/2 channel current remaining following activation of 5-ptaseOCRL (in words)", "value": "increase"}, {"measurement": "τ of current-inhibition, GIRK1/2 (in words)", "value": "increase"}, {"measurement": "protection from current inhibition, rank order, GIRK1/2", "value": "GAT1508>GAT1521>ML297>Control"}]}
{"smiles": "Cc1cc(NC(=O)Nc2ccc(F)c(F)c2)n(-c2ccccc2)n1", "note": "[ML297, reference compound]", "values": [{"measurement": "percentage of GIRK1/2 channel current remaining following activation of 5-ptaseOCRL (in words)", "value": "increase"}, {"measurement": "τ of current-inhibition, GIRK1/2 (in words)", "value": "increase"}, {"measurement": "protection from current inhibition, rank order, GIRK1/2", "value": "GAT1508>GAT1521>ML297>Control"}]}
